{"source": "paper PMC12486850", "about": "“Dual mechanism of the OXA-23 carbapenemase inhibition by the carbapenem NA-1-157” (Antimicrobial Agents and Chemotherapy, 2025)", "key": {"OXA-23 [1]": {"target": "T1, OXA-23 (Acinetobacter baumannii, UniProt Q9L4P2)", "T1 construct": "5'-truncated (54 bp) E. coli-optimized blaOXA-23 gene", "T1 sequence (Q9L4P2 19-273)": "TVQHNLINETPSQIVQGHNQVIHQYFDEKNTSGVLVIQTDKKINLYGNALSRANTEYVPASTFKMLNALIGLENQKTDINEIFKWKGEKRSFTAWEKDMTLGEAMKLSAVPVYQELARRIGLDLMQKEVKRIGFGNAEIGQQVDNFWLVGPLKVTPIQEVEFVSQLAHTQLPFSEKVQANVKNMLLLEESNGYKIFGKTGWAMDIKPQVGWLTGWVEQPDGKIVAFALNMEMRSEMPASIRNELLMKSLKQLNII", "test": "time-resolved crystal structures ([…] min soaks), ESI-LC/MS, nitrocefin competition kinetics", "format": "biochemical"}, "OXA-23 [2]": {"target": "T1, OXA-23", "test": "crystal structure of the acyl-enzyme complex ([…] min soak, […] meropenem)", "format": "binding"}}}
{"smiles": "C[C@@H](O)[C@H]1C(=O)N2C(C(=O)O)=C(S[C@@H]3CN[C@H](C(=O)N(C)C)C3)C[C@]12C", "note": "[NA-1-157]", "values": [{"measurement": "Ki", "setting": "OXA-23 [1]", "value": "590 ± 20", "unit": "nM"}]}
{"smiles": "C[C@@H](O)[C@H]1C(=O)N2C(C(=O)O)=C(S[C@@H]3CN[C@H](C(=O)N(C)C)C3)[C@H](C)[C@H]12", "note": "[meropenem]", "values": [{"measurement": "crystal structure of the acyl-enzyme complex (6 min soak, 20 mM meropenem)", "setting": "OXA-23 [2]", "value": "In the OXA-23–meropenem acyl-enzyme complex, meropenem is covalently attached to the Ser70 side chain"}]}
